The target of this test is T1, P2Y12 receptor (Homo sapiens, UniProt Q9H244).
T1 construct: expressed in transfected cells; host or cells: CHO cells (membrane preparation)
The experiment in a line: Functional inhibition of 2-Me-S-ADP induced P2Y12 signalling (35S-GTPγS, membranes from P2Y12 transfected CHO-cells). It is filed as biochemical. The note with it: EC80 concentration of agonist 2-methyl-thio-adenosine diphosphate, 30° C., 45 min. On the procedure:
Functional inhibition of the P2Y12 receptor can be measured by in vitro assays using cell membranes from P2Y12 transfected CHO-cells, the methodology is indicated below.
Functional inhibition of 2-Me-S-ADP induced P2Y12 signalling: 5 μg of membranes were diluted in 200 μl of 200 mM NaCl, 1 mM MgCl2, 50 mM HEPES (pH 7.4), 0.01% BSA, 30 μg/ml saponin and 10 μM GDP. To this was added an EC80 concentration of agonist (2-methyl-thio-adenosine diphosphate), the required concentration of test compound and 0.1 μCi ^35S-GTPγS. The reaction was allowed to proceed at 30° C. for 45 min. Samples were then transferred on to GF/B filters using a cell harvester and washed with wash buffer (50 mM Tris (pH 7.4), 5 mM MgCl2, 50 mM NaCl). Filters were then covered with scintilant and counted for the amount of ^35S-GTPγS retained by the filter. Maximum activity was that determined in the presence of the agonist and minimum activity in the absence of the agonist following subtraction of the value determined for non-specific activity. The effect of compounds at various concentrations was plotted according to the equation […]
y=A+((B−A)/(1+((C/x)̂D)))
A is the bottom plateau of the curve i.e. the final minimum y value
B is the top of the plateau of the curve i.e. the final maximum y value
C is the x value at the middle of the curve. This represents the log EC50 value when A+B=100 […]

The structures appear in SMILES notation.

T1 sequence (Q9H244 whole entry): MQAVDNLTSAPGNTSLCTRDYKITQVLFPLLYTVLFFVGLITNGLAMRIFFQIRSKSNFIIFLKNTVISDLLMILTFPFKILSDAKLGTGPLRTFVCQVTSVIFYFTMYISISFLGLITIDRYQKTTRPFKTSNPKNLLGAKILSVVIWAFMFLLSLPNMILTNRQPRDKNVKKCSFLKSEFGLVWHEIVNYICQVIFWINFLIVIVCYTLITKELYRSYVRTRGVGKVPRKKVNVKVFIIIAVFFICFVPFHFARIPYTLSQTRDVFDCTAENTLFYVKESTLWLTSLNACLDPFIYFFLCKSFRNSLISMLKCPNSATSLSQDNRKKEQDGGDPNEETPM

For `CCOC(=O)c1cc(C#N)c(N2CCC(S(=O)(=O)NS(=O)(=O)Cc3ccccc3)CC2)nc1C` [Example 2, ethyl 6-(4-{[(benzylsulfonyl)amino]sulfonyl}piperidin-1-yl)-5-cyano-2-methylnicotinate], the IC50 was 0.64 µM.

Turning to `CCOC(=O)c1cc(C#N)c(N2CCC(S(=O)(=O)NC(=O)Cc3ccc(F)cc3)CC2)nc1C` [Example 4, Ethyl 5-cyano-6-[4-({[(4-fluorophenyl)acetyl]amino}sulfonyl)piperidin-1-yl]-2-methylnicotinate], the 50% inhibitory concentration (IC50) came to 0.3 µM.

Source of the values: patent publication US20080009523A1, “New Pyridine Analogues IV” (ASTRAZENECA AB, priority 2006, published 2008).
